Measurements from patent publication US11596639B2, “Substituted indole Mcl-1 inhibitors” (Vanderbilt University, priority 2016, dated 2023).

Key:
Mcl-1 = Mcl-1 (Homo sapiens (Human), UniProt Q07820); assay: TR-FRET binding assay, FITC-Bak peptide and MBP-tagged Mcl-1; settings: read-out: Ki for Inhibition of Mcl-1 by TR-FRET assay
Protocol: Compounds are diluted in DMSO in a 16-point, semilog serial dilution scheme. […] The plate was mixed and incubated for 3 hours at room temperature. […] TR-FRET signal is plotted and IC50 and Ki values are calculated in the same manner as the fluorescence polarization anisotropy based competition assays.

[1] = system: H929 human cancer cell lines; assay: Cellular viability / proliferation (Cell TiterGlo, 72 h); type: cell-based; settings: Homo sapiens, NCI-H929, 72 h, read-out: GI50 on cellular proliferation of H929 human cancer cell lines, H929 cells, 72 h, Cell TiterGlo, 10% FBS
Procedure, shortened: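 Cells were seeded at 1,000 cells/well in medium with 10% FBS and dosed 24 h later with a 2-fold serial dilution of compound (top concentration 50 μM, final DMSO <1%).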

Chain of Mcl-1 (Q07820 172-327): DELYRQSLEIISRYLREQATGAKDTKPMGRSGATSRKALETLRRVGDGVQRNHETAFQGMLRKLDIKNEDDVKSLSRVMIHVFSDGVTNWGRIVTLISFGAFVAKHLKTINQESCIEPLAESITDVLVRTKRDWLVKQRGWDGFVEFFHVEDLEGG

SMILES | Ki (Mcl-1) | GI50 [1]
Cc1cc(OCCCc2c3n(c4c(-c5c(C)cc(OCc6ccccn6)cc5C)c(Cl)ccc24)[C@H](C)CN(c2cn(C)c4ccc(C(=O)O)cc24)C3=O)cc(C)c1Cl [Example 497, (R)-3-(7-chloro-10-(3-(4-chloro-3,5-dimethylphenoxy)propyl)-6-(2,6-dimethyl-4-(pyridin-2-ylmethoxy)phenyl)-4-methyl-1-oxo-3,4-dihydropyrazino[1,2-a]indol-2(1H)-yl)-1-methyl-1H-indole-5-carboxylic acid] | 1.3 nM | 1700 nM
COCCn1c(C(=O)O)cc2cc(OC)cc(N3C[C@@H](C)n4c(c(CCCOc5cc(C)c(Cl)c(C)c5)c5ccc(Cl)c(-c6c(C)nn(C)c6C)c54)C3=O)c21 [Example 665, (R)-7-(7-chloro-10-(3-(4-chloro-3,5-dimethylphenoxy)propyl)-4-methyl-1-oxo-6-(1,3,5-trimethyl-1H-pyrazol-4-yl)-3,4-dihydropyrazino[1,2-a]indol-2(1H)-yl)-5-methoxy-1-(2-methoxyethyl)-1H-indole-2-carboxylic acid] | < 0.2 nM | 280 nM
Cc1cc(OCCCc2c3n(c4c(-c5c(C)ncnc5C)c(Cl)ccc24)[C@H](C)CN(c2cn(C)c4ccc(-c5ncccn5)cc24)C3=O)cc(C)c1Cl [Example 642, (R)-7-Chloro-10-(3-(4-chloro-3,5-dimethylphenoxy)propyl)-6-(4,6-dimethylpyrimidin-5-yl)-4-methyl-2-(1-methyl-5-(pyrimidin-2-yl)-1H-indol-3-yl)-3,4-dihydropyrazino[1,2-a]indol-1(2H)-one] | 3 nM | 790 nM
Cc1cc(N2C[C@@H](C)n3c(c(CCCOc4cc(C)c(Cl)c(C)c4)c4ccc(Cl)c(-c5c(C)nn(C)c5C)c43)C2=O)c2c(c1)cc(C(=O)O)n2CC(=O)N1CCOCC1 [Example 598, (R)-7-(7-chloro-10-(3-(4-chloro-3,5-dimethylphenoxy)propyl)-4-methyl-1-oxo-6-(1,3,5-trimethyl-1H-pyrazol-4-yl)-3,4-dihydropyrazino[1,2-a]indol-2(1H)-yl)-5-methyl-1-(2-morpholino-2-oxoethyl)-1H-indole-2-carboxylic acid] | < 0.2 nM | 1900 nM
Cc1cc(OCCCc2c3n(c4c(-c5c(C)nn(C)c5C)c(Cl)ccc24)[C@H](C)CN(c2cn(C)c4ccc(-c5nc6ccccn6n5)cc24)C3=O)cc(C)c1Cl [Example 648, (R)-2-(5-([1,2,4]Triazolo[1,5-a]pyridin-2-yl)-1-methyl-1H-indol-3-yl)-7-chloro-10-(3-(4-chloro-3,5-dimethylphenoxy)propyl)-4-methyl-6-(1,3,5-trimethyl-1H-pyrazol-4-yl)-3,4-dihydropyrazino[1,2-a]indol-1(2H)-one] | 0.23 nM | 310 nM
Cc1cc(OCCCc2c3n(c4c(-c5c(C)nn(C)c5C)c(Cl)ccc24)[C@H](C)CN(c2cn(C)c4ccc(-c5nnc6ccccn56)cc24)C3=O)cc(C)c1Cl [Example 675, (R)-2-(5-([1,2,4]Triazolo[4,3-a]pyridin-3-yl)-1-methyl-1H-indol-3-yl)-7-chloro-10-(3-(4-chloro-3,5-dimethylphenoxy)propyl)-4-methyl-6-(1,3,5-trimethyl-1H-pyrazol-4-yl)-3,4-dihydropyrazino[1,2-a]indol-1(2H)-one] | 28 nM | 4800 nM
Cc1cc(OCCCc2c3n(c4c(-c5c(C)nn(C)c5C)c(Cl)ccc24)[C@H](C)CN(c2cc(NC(=O)CN4CCCCC4)cc4c(C(=O)O)cn(C)c24)C3=O)cc(C)c1Cl [Example 533, (R)-7-(7-Chloro-10-(3-(4-chloro-3,5-dimethylphenoxy)propyl)-4-methyl-1-oxo-6-(1,3,5-trimethyl-1H-pyrazol-4-yl)-3,4-dihydropyrazino[1,2-a]indol-2(1H)-yl)-1-methyl-5-(2-(piperidin-1-yl)acetamido)-1H-indole-3-carboxylic acid] | 0.69 nM | 1300 nM
Cc1cc(OCCCc2c3n(c4c(-c5c(C)nn(C)c5C)c(Cl)ccc24)[C@H](C)CN(c2cccc4c(C(=O)O)c5n(c24)CCN(C)C5=O)C3=O)cc(C)c1Cl [Example 562, (R)-7-chloro-10-(3-(4-chloro-3,5-dimethylphenoxy)propyl)-2′,4-dimethyl-1,1′-dioxo-6-(1,3,5-trimethyl-1H-pyrazol-4-yl)-1′,2′,3,3′,4,4′-hexahydro-1H-[2,6′-bipyrazino[1,2-a]indole]-10′-carboxylic acid] | 0.97 nM | 1200 nM
Cc1cc(OCCCc2c3n(c4c(-c5c(C)nn(C)c5C)c(Cl)ccc24)[C@H](C)CN(c2cn(C)c4ccc(-n5ncnn5)cc24)C3=O)cc(C)c1Cl [Example 689, (R)-7-Chloro-10-(3-(4-chloro-3,5-dimethylphenoxy)propyl)-4-methyl-2-(1-methyl-5-(2H-tetrazol-2-yl)-1H-indol-3-yl)-6-(1,3,5-trimethyl-1H-pyrazol-4-yl)-3,4-dihydropyrazino[1,2-a]indol-1(2H)-one] | 2.1 nM | 1700 nM
Cc1cc(OCCCc2c3n(c4c(-c5c(C)nn(C)c5C)c(Cl)ccc24)[C@H](C)CN(c2cn(Cc4cccnc4)c4ccc(C(=O)O)cc24)C3=O)cc(C)c1Cl [Example 563, (R)-3-(7-chloro-10-(3-(4-chloro-3,5-dimethylphenoxy)propyl)-4-methyl-1-oxo-6-(1,3,5-trimethyl-1H-pyrazol-4-yl)-3,4-dihydropyrazino[1,2-a]indol-2(1H)-yl)-1-(pyridin-3-ylmethyl)-1H-indole-5-carboxylic acid] | < 0.2 nM | 1500 nM
Cc1cc(OCCCc2c3n(c4c(-c5c(C)nn(C)c5C)c(Cl)ccc24)[C@H](C)CN(c2cc(N(C)C(=O)[C@H](C)N(C)C)cc4c(C(=O)O)cn(C)c24)C3=O)cc(C)c1Cl [Example 608, 7-((R)-7-chloro-10-(3-(4-chloro-3,5-dimethylphenoxy)propyl)-4-methyl-1-oxo-6-(1,3,5-trimethyl-1H-pyrazol-4-yl)-3,4-dihydropyrazino[1,2-a]indol-2(1H)-yl)-5-((S)-2-(dimethylamino)-N-methylpropanamido)-1-methyl-1H-indole-3-carboxylic acid] | 0.91 nM | 304000 nM
COCCn1c(C(=O)O)cc2cc(C)cc(N3C[C@@H](C)n4c(c(CCCOc5cc(C)c(Cl)c(C)c5)c5ccc(Cl)c(-c6c(C)nc(CN7CCOCC7)nc6C)c54)C3=O)c21 [Example 717, (R)-7-(7-chloro-10-(3-(4-chloro-3,5-dimethylphenoxy)propyl)-6-(4,6-dimethyl-2-(morpholinomethyl)pyrimidin-5-yl)-4-methyl-1-oxo-3,4-dihydropyrazino[1,2-a]indol-2(1H)-yl)-1-(2-methoxyethyl)-5-methyl-1H-indole-2-carboxylic acid] | < 0.2 nM | < 200 nM
COCc1nc(-c2ccc3c(c2)c(N2C[C@@H](C)n4c(c(CCCOc5cc(C)c(Cl)c(C)c5)c5ccc(Cl)c(-c6c(C)nn(C)c6C)c54)C2=O)cn3C)nn1C [Example 674, (R)-7-Chloro-10-(3-(4-chloro-3,5-dimethylphenoxy)propyl)-2-(5-(5-(methoxymethyl)-1-methyl-1H-1,2,4-triazol-3-yl)-1-methyl-1H-indol-3-yl)-4-methyl-6-(1,3,5-trimethyl-1H-pyrazol-4-yl)-3,4-dihydropyrazino[1,2-a]indol-1(2H)-one] | 2.1 nM | 210 nM
COCCCn1c(C(=O)O)cc2cc(C)cc(N3C[C@@H](C)n4c(c(CCCOc5cc(C)c(Cl)c(C)c5)c5ccc(Cl)c(-c6c(C)nn(C)c6C)c54)C3=O)c21 [Example 686, (R)-7-(7-chloro-10-(3-(4-chloro-3,5-dimethylphenoxy)propyl)-4-methyl-1-oxo-6-(1,3,5-trimethyl-1H-pyrazol-4-yl)-3,4-dihydropyrazino[1,2-a]indol-2(1H)-yl)-1-(3-methoxypropyl)-5-methyl-1H-indole-2-carboxylic acid] | < 0.2 nM | 520 nM
Cc1cc(OCCCc2c3n(c4c(-c5c(C)ncnc5C)c(Cl)ccc24)[C@H](C)CN(c2cn(C)c4ncc(C(=O)O)cc24)C3=O)cc(C)c1Cl [Example 636, (R)-3-(7-chloro-10-(3-(4-chloro-3,5-dimethylphenoxy)propyl)-6-(4,6-dimethylpyrimidin-5-yl)-4-methyl-1-oxo-3,4-dihydropyrazino[1,2-a]indol-2(1H)-yl)-1-methyl-1H-pyrrolo[2,3-b]pyridine-5-carboxylic acid] | 0.5 nM | 980 nM
COCCn1c(C(=O)O)cc2c(OC)ccc(N3C[C@@H](C)n4c(c(CCCOc5cc(C)c(Cl)c(C)c5)c5ccc(Cl)c(-c6c(C)nn(C)c6C)c54)C3=O)c21 [Example 587, (R)-7-(7-chloro-10-(3-(4-chloro-3,5-dimethylphenoxy)propyl)-4-methyl-1-oxo-6-(1,3,5-trimethyl-1H-pyrazol-4-yl)-3,4-dihydropyrazino[1,2-a]indol-2(1H)-yl)-4-methoxy-1-(2-methoxyethyl)-1H-indole-2-carboxylic acid] | < 0.2 nM | < 200 nM
COc1ccc(N2C[C@@H](C)n3c(c(CCCOc4cc(C)c(Cl)c(C)c4)c4ccc(Cl)c(-c5c(C)ncnc5C)c43)C2=O)c2c1cc(C(=O)O)n2Cc1cc(C)ccn1 [Example 520, (R)-7-(7-chloro-10-(3-(4-chloro-3,5-dimethylphenoxy)propyl)-6-(4,6-dimethylpyrimidin-5-yl)-4-methyl-1-oxo-3,4-dihydropyrazino[1,2-a]indol-2(1H)-yl)-4-methoxy-1-((4-methylpyridin-2-yl)methyl)-1H-indole-2-carboxylic acid] | < 0.2 nM | < 200 nM
